The target in this assay is T1, SIRT1 (Homo sapiens, UniProt Q96EB6).
T1 sequence (Q96EB6 1-747): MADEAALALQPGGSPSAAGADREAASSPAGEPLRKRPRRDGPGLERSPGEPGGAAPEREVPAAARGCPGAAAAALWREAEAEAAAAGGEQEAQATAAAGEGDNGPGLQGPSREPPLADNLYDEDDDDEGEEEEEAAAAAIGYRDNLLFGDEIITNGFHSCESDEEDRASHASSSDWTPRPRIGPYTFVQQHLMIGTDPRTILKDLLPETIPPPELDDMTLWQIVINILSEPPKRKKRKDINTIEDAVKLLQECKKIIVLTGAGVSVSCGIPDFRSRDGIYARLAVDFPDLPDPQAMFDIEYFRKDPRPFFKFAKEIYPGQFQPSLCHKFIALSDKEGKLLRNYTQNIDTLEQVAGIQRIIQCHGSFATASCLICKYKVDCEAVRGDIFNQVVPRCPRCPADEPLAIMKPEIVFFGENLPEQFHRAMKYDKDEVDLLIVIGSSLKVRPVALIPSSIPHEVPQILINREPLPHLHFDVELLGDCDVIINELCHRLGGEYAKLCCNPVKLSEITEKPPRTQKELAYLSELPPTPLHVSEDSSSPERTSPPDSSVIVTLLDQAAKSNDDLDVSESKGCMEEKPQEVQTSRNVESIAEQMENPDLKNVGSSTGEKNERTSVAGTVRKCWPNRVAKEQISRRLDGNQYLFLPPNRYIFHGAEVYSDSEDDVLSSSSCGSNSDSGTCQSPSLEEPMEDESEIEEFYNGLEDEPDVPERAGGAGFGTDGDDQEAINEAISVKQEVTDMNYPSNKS
The experiment in a line: Trp mass spectrometry assay of SIRT1 activation (Ac-R-H-K-K(Ac)-W-NH2 peptide). In kind it is biochemical. As to conditions: for Emax: 25 min, read-out: TRP MAX RESP (percent maximum fold activation). The gist of the method:
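Mass spectrometry read-out (OAADPR formed, or deacetylated Trp peptide) after a 25 min NAD-dependent deacetylation by E. coli-expressed His-SIRT1, stopped with formic acid.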

Setting [1] is: Trp peptide 0.5 μM, 120 μM βNAD+, 10 nM SIRT1, 25 min at 25° C., relative to control (100%).
Setting [2] is: Trp peptide 0.5 μM, 120 μM βNAD+, 10 nM SIRT1, 25 min at 25° C.

Here are results for 19 compounds from patent publication US10072011B2, “Substituted bridged urea analogs as sirtuin modulators” (GlaxoSmithKline Intellectual Property (No.2) Limited, priority 2014, dated 2018).

Like-named read-outs stand apart in the source and are kept apart here. Where only a bound is given, the exact number is not on record here.

`O=C(N[C@H](CO)C(F)(F)F)c1ccc2c(n1)N(C(=O)Nc1ccc(F)cn1)[C@H]1CCN2C1` [Example 82, (4S)—N5-(5-fluoropyridin-2-yl)-N7-((R)-1,1,1-trifluoro-3-hydroxypropan-2-yl)-3,4-dihydro-1,4-methanopyrido[2,3-b][1,4]diazepine-5,7(2H)-dicarboxamide]: the Emax under setting [1] was greater than 150%. Also, under setting [2], the “TRP Activity (EC1.5, concentration of test compound that results in 150% activation of SIRT1)” value is “A (EC1.5<1 μM)”.
In the same order, the values of `O=C(NC1CC1)c1ccc2c(n1)N(C(=O)Nc1cccnn1)[C@H]1CCN2C1` [Example 229, (4S)—N7-cyclopropyl-N5-(pyridazin-3-yl)-3,4-dihydro-1,4-methanopyrido[2,3-b][1,4]diazepine-5,7(2H)-dicarboxamide] are greater than 150% and “B (EC1.5 1-25 μM)”.
On the same counts, the results for `CNC(=O)c1ccc(NC(=O)N2c3nc(C(=O)NCC(F)(F)F)ccc3N3CC[C@H]2C3)nc1` [Example 168, (4S)—N5-(5-(methylcarbamoyl)pyridin-2-yl)-N7-(2,2,2-trifluoroethyl)-3,4-dihydro-1,4-methanopyrido[2,3-b][1,4]diazepine-5,7(2H)-dicarboxamide] are greater than 150% and “A (EC1.5<1 μM)”.
On to `C[C@@H](NC(=O)c1ccc2c(n1)N(C(=O)Nc1cc(OC[C@H](O)CO)ncn1)[C@H]1CCN2C1)C(F)(F)F` [Example 189, (4S)—N5-(6-((R)-2,3-dihydroxypropoxy)pyrimidin-4-yl)-N7-((R)-1,1,1-trifluoropropan-2-yl)-3,4-dihydro-1,4-methanopyrido[2,3-b][1,4]diazepine-5,7(2H)-dicarboxamide], for which the Emax under setting [1] was greater than 150%. Also, under setting [2], the “TRP Activity (EC1.5, concentration of test compound that results in 150% activation of SIRT1)” value is “A (EC1.5<1 μM)”.
Turning to `O=C(N[C@H](C1CC1)C(F)(F)F)c1ccc2c(n1)N(C(=O)Nc1ccccn1)[C@H]1CCN2C1` [Example 46, (4S)—N7-((R)-1-cyclopropyl-2,2,2-trifluoroethyl)-N5-(pyridin-2-yl)-3,4-dihydro-1,4-methanopyrido[2,3-b][1,4]diazepine-5,7(2H)-dicarboxamide], the Emax under setting [1] is greater than 150%. For the same compound, under setting [2], the “TRP Activity (EC1.5, concentration of test compound that results in 150% activation of SIRT1)” value was “A (EC1.5<1 μM)”.
Consider `O=C(NC1CC1(F)F)c1ccc2c(n1)N(C(=O)Nc1cc(OCCO)ccn1)[C@H]1CCN2C1` (single isomer, unassigned) [Example 263], for which, under setting [2], the “TRP Activity (EC1.5, concentration of test compound that results in 150% activation of SIRT1)” value is reported as “B (EC1.5 1-25 μM)”. The “TRP MAX RESP (percent maximum fold activation)” value under setting [1] is “A (Fold activation≥150%)”.
For `CC(C)NC(=O)c1ccc2c(n1)N(C(=O)Nc1ccccn1)[C@H]1CCN2C1` [Example 32, (4S)—N7-isopropyl-N5-(pyridin-2-yl)-3,4-dihydro-1,4-methanopyrido[2,3-b][1,4]diazepine-5,7(2H)-dicarboxamide], the Emax is greater than 150%. Also, the “TRP Activity (EC1.5, concentration of test compound that results in 150% activation of SIRT1)” value under setting [2] is recorded as “A (EC1.5<1 μM)”.
Take `CS(=O)(=O)c1ccc(NC(=O)N2c3nc(C(=O)NCC(F)(F)F)ccc3N3CC[C@H]2C3)nc1` [Example 146, (4S)—N5-(5-(methylsulfonyl)pyridin-2-yl)-N7-(2,2,2-trifluoroethyl)-3,4-dihydro-1,4-methanopyrido[2,3-b][1,4]diazepine-5,7(2H)-dicarboxamide]: the Emax under setting [1] is greater than 150%. Besides, the “TRP Activity (EC1.5, concentration of test compound that results in 150% activation of SIRT1)” value under setting [2] is given as “B (EC1.5 1-25 μM)”.
On the same counts, the results for `C[C@@H](NC(=O)c1ccc2c(n1)N(C(=O)Nc1cc3cc[nH]c3cn1)[C@H]1CCN2C1)C(F)(F)F` [Example 181, (4S)—N5-(1H-pyrrolo[2,3-c]pyridin-5-yl)-N7-((R)-1,1,1-trifluoropropan-2-yl)-3,4-dihydro-1,4-methanopyrido[2,3-b][1,4]diazepine-5,7(2H)-dicarboxamide] are greater than 150% and “A (EC1.5<1 μM)”.
`O=C(NC(CO)C(F)(F)F)c1ccc2c(n1)N(C(=O)Nc1ccccn1)[C@H]1CCN2C1` (stereo partly drawn) [Example 8, (4S)—N-5-(pyridin-2-yl)-N-7-(1,1,1-trifluoro-3-hydroxypropan-2-yl)-3,4-dihydro-1,4-methanopyrido[2,3-b][1,4]diazepine-5,7(2H)-dicarboxamide]: the Emax under setting [1] is greater than 150%. Further, the “TRP Activity (EC1.5, concentration of test compound that results in 150% activation of SIRT1)” value under setting [2] was “A (EC1.5<1 μM)”.
For the compound `O=C(NCC(F)F)c1ccc2c(n1)N(C(=O)Nc1ccc(F)cn1)[C@H]1CCN2C1` [Example 69, (4S)—N7-(2,2-difluoroethyl)-N5-(5-fluoropyridin-2-yl)-3,4-dihydro-1,4-methanopyrido[2,3-b][1,4]diazepine-5,7(2H)-dicarboxamide], the Emax is greater than 150%. Also, the “TRP Activity (EC1.5, concentration of test compound that results in 150% activation of SIRT1)” value under setting [2] was “A (EC1.5<1 μM)”.
On to `C[C@@H](NC(=O)c1ccc2c(n1)N(C(=O)Nc1cc(O)ccn1)[C@H]1CCN2C1)C(F)(F)F` [Example 301, (4S)—N5-(4-hydroxypyridin-2-yl)-N7-((R)-1,1,1-trifluoropropan-2-yl)-3,4-dihydro-1,4-methanopyrido[2,3-b][1,4]diazepine-5,7(2H)-dicarboxamide], for which the Emax under setting [1] is less than 150%. Moreover, the “TRP Activity (EC1.5, concentration of test compound that results in 150% activation of SIRT1)” value under setting [2] is recorded as “A (EC1.5<1 μM)”.
In the same order, the values of `O=C(NC[C@H](O)C(F)(F)F)c1ccc2c(n1)N(C(=O)Nc1cc(OC[C@H](O)CO)ccn1)[C@H]1CCN2C1` [Example 91, (4S)—N5-(4-((R)-2,3-dihydroxypropoxy)pyridin-2-yl)-N7-((S)-3,3,3-trifluoro-2-hydroxypropyl)-3,4-dihydro-1,4-methanopyrido[2,3-b][1,4]diazepine-5,7(2H)-dicarboxamide] are greater than 150% and “A (EC1.5<1 μM)”.
On the same counts, the results for `O=C(NC1CCC1)c1ccc2c(n1)N(C(=O)Nc1ccccn1)[C@H]1CCN2C1` [Example 7, (4S)—N-7-cyclobutyl-N-5-(pyridin-2-yl)-3,4-dihydro-1,4-methanopyrido [2,3-b] [1, 4] diazepine-5, 7(2H)-dicarboxamide] are greater than 150% and “A (EC1.5<1 μM)”.
Consider `COCC(C)NC(=O)c1ccc2c(n1)N(C(=O)Nc1ccccn1)[C@H]1CCN2C1` (stereo partly drawn) [Example 11, (4S)—N-7-(1-methoxypropan-2-yl)-N-5-(pyridin-2-yl)-3,4-dihydro-1,4-methanopyrido [2,3-b] [1, 4] diazepine-5, 7(2H)-dicarboxamide], for which, under setting [1], the Emax was greater than 150%. Besides, the “TRP Activity (EC1.5, concentration of test compound that results in 150% activation of SIRT1)” value under setting [2] is reported as “B (EC1.5 1-25 μM)”.
In the same order, the values of `C[C@@H](NC(=O)c1ccc2c(n1)N(C(=O)Nc1cc3nc[nH]c3cn1)[C@H]1CCN2C1)C(F)(F)F` [Example 192, (4S)—N5-(3H-imidazo[4,5-c]pyridin-6-yl)-N7-((R)-1,1,1-trifluoropropan-2-yl)-3,4-dihydro-1,4-methanopyrido[2,3-b][1,4]diazepine-5,7(2H)-dicarboxamide] are greater than 150% and “A (EC1.5<1 μM)”.
Take `C[C@@H](NC(=O)c1ccc2c(n1)N(C(=O)Nc1cc(N3CCOCC3)ccn1)[C@H]1CCN2C1)C(F)(F)F` [Example 307, (4S)—N5-(4-morpholinopyridin-2-yl)-N7-((R)-1,1,1-trifluoropropan-2-yl)-3,4-dihydro-1,4-methanopyrido[2,3-b][1,4]diazepine-5,7(2H)-dicarboxamide]: the Emax under setting [1] was less than 150%. Under setting [2], the “TRP Activity (EC1.5, concentration of test compound that results in 150% activation of SIRT1)” value is given as “A (EC1.5<1 μM)”.
In the same order, the values of `O=C(NCC(F)(F)F)c1ccc2c(n1)N(C(=O)Nc1ccccn1)[C@H]1CC[N+]2([O-])C1` [Example 295, (4S)-5-(pyridin-2-ylcarbamoyl)-7-((2,2,2-trifluoroethyl)carbamoyl)-2,3,4,5-tetrahydro-1H-1,4-methanopyrido[2,3-b][1,4]diazepine 1-oxide] are greater than 150% and “B (EC1.5 1-25 μM)”.
On the same counts, the results for `C[C@@H](O)CNC(=O)c1ccc2c(n1)N(C(=O)Nc1ccccn1)[C@H]1CCN2C1` [Example 203, (4S)—N7-((R)-2-hydroxypropyl)-N5-(pyridin-2-yl)-3,4-dihydro-1,4-methanopyrido[2,3-b][1,4]diazepine-5,7(2H)-dicarboxamide] are greater than 150% and “B (EC1.5 1-25 μM)”.
